These results are taken from paper PMC4516313 (Journal of Medicinal Chemistry, 2015).

Like-named read-outs stand apart in the source and are kept apart here.

Data set [1] has as its system tobacco smokers. The conditions noted are these: smokers after overnight abstinence; cited from earlier work.
Data set [2] has as its system abstinent smokers. To be noted: cited from earlier work.
The test system of data set [3] is overweight and obese subjects. The conditions noted are these: cited from earlier work.
Data set [4] concerns rats. To be noted: cited from earlier work.
Data set [5] relates to cocaine abusers. The conditions noted are these: cited from earlier work.
Data set [6] has as its system D3R. To be noted: primates, PET, oral 1.0 mg/kg; cited from earlier work.
Data set [7] deals with monkeys. The conditions noted are these: 5 day treatment; cited from earlier work.
In data set [8] the test system is monkeys. The conditions noted are these: cited from earlier work.
The subject of data set [9] is rhesus monkeys. To be noted: cited from earlier work.
The test system of data set [10] is rats.
Data set [11] has as its system squirrel monkeys. To be noted: cited from earlier work.
Data set [12] deals with rhesus monkeys. To be noted: cited from earlier work. The source holds these as a separate data set.
Data set [13] concerns rats. The conditions noted are these: cited from earlier work. The source holds these as a separate data set.
In data set [14] the test system is rats. The conditions noted are these: cited from earlier work. The source holds these as a separate data set.
For data set [15], the system named is D3R. The conditions noted are these: cited from earlier work.
Data set [16] has as its system rats. The conditions noted are these: unpublished results.
In data set [17] the test system is cynomolgus monkeys.
For data set [18], the system named is 64 radioligand/enzyme assays. To be noted: 10 μM; e.g. α1 adrenergic, α2 adrenergic, histamine H1, sodium channel site 2, CCK1, NK2.
The test system of data set [19] is rhesus monkeys. The conditions noted are these: 5 day treatment, 3.0 mg/kg i.v., two of three monkeys.
Data set [20] relates to monkeys. The conditions noted are these: monkeys trained to discriminate cocaine, preliminary unpublished results.
The subject of data set [21] is humans. The conditions noted are these: cited from earlier work.
[22] abbreviates: history of long access (6 h per day, 6 days per week).
The mark [23] stands for this setting: history of short access (1 h per day, 3 days per week).

On to `Cc1ncoc1-c1nnc(SCCCN2C[C@@H]3C[C@]3(c3ccc(C(F)(F)F)cc3F)C2)n1C` [Compound 7], for which the craving entry in data set [1] is given as “transiently alleviated craving”. Also, the “attentional bias, Stroop Task” value in data set [2] was “partially attenuated an attentional bias”. Also, in [3], the approach bias result is reported as “reduced approach bias” and the “attentional bias to palatable food cues” value is reported as “reduced”.
Regarding `O=C(NC/C=C/CN1CCN(c2cccc(Cl)c2Cl)CC1)c1ccc(-c2ccccn2)cc1` [Compound 3], the “PR METH self-administration” value is reported as “reduced PR METH self-administration” in data set [4] (setting [22]) and “in contrast to 3” in data set [4] (setting [23]).
On to `O=C1CC2(CCCC2)CC(=O)N1CCCCN1CCN(c2ncccn2)CC1` [buspirone], for which, in data set [5] (60 mg), the cocaine use result is recorded as “increased cocaine use in women”. Also, the treatment-emergent adverse events result in data set [5] is reported as “did not include increases in blood pressure”. Further, in [6], the D3R occupancy is given as below 20%. Also, in data set [7], the cocaine choice entry is “increased cocaine choice”. Further, in data set [8] (monkeys self-administering cocaine), the “cocaine-maintained vs food-reinforced behavior” value was “decreased cocaine-maintained behavior to a larger degree than food-reinforced behavior”. The “cocaine self-administration vs food-reinforced responding” value in data set [8] (rhesus monkeys, continuous infusions) is “decreased cocaine self-administration to a greater degree than food-reinforced responding”.
With `CCCN1CCC[C@@H]2Cc3n[nH]cc3C[C@H]21` [quinpirole, reference compound], the yawning entry in data set [9] (cocaine-naïve rhesus monkeys) was “induces robust yawning”.
Regarding `O=C(NCC[C@@H](O)CN1CCN(c2cccc(Cl)c2Cl)CC1)c1cc2ccccc2[nH]1` [(R)-1], in data set [10] (3.0 mg/kg i.p.), the “Dunnett's test p vs vehicle, PR break points normalized to baseline” value is given as below 0.001 and the “Dunnett's test p vs vehicle, number of METH injections” value (“Dunnett's test p vs vehicle, number” for short) is below 0.01. Further, in data set [10] (10 mg/kg i.p.), the “Dunnett's test p vs vehicle, PR break points normalized to baseline” value was below 0.001 and the “Dunnett's test p vs vehicle, number” value was below 0.01.
Turning to `O=C(NCCCCN1CCN(c2cccc(Cl)c2Cl)CC1)c1ccc(-c2ccccn2)cc1` [Compound 17, N-(4-(4-(2,3-dichlorophenyl)piperazin-1-yl)butyl)-4-(pyridin-2-yl)benzamide], the “cocaine self-administration and cocaine-induced reinstatement” value in [11] is “failed to attenuate cocaine self-administration or cocaine-induced reinstatement”. For the same molecule, the “cocaine- and food-maintained responding” value in data set [12] (monkeys, second-order schedule of reinforcement) is “decreased both cocaine- and food-maintained responding”. The “cocaine's discriminative stimulus effects” value in data set [12] (rhesus monkeys) was “attenuated cocaine’s discriminative stimulus effects”. The values for the yawning result in data set [9] (cocaine-naïve rhesus monkeys) and in data set [9] (monkeys with a history of cocaine self-administration) were “failed to do so” and “induced yawning similar in magnitude to quinpirole”, respectively. Further, the “PR METH self-administration” value is on record as “reduced PR METH self-administration” in [4] (setting [22]) and “also reduced PR METH self-administration” in data set [4] (setting [23]).
With `O=C(NCCCCN1CCN(c2cccc(Cl)c2Cl)CC1)c1ccc2c(c1)Cc1ccccc1-2` [Compound 2, N-(4-(4-(2,3-dichlorophenyl)piperazin-1-yl)butyl)-9H-fluorene-2-carboxamide], the “break point, cocaine PR schedule” value in [13] is “significantly lowered the break point”. For the same molecule, in [14], the “cue- and cocaine-induced reinstatement of cocaine seeking” value was “blocked both cue- and cocaine-induced reinstatement of cocaine seeking”.
As to `CN(C)C(=O)N[C@H]1CC[C@H](CCN2CCN(c3cccc(Cl)c3Cl)CC2)CC1` [Compound 6, cariprazine], the D3R-preferential entry in [15] was “approximately 10 fold”.
Turning to `O=C(NCCC(O)CN1CCN(c2cccc(Cl)c2Cl)CC1)c1cc2ccccc2[nH]1` (racemic) [(±)-1, N-(4-(4-(2,3-dichlorophenyl)piperazin-1-yl)-3-hydroxybutyl)-1H-indole-2-carboxamide], the “effect on 7-OH DPAT-induced yawning” value in data set [16] was “attenuated 7-OH DPAT-induced yawning in rats”. In data set [17] (0.01 mg/kg cocaine available as the alternative to food), the “cocaine choice, group data, posthoc comparison” value is on record as “significant increase in cocaine choice”. For the same molecule, in data set [17] (seven cynomolgus monkeys, acute i.v., in all but one monkey), the “effect on cocaine choice curve” value is listed as “either shifted the cocaine choice curve to the left (4 subjects) or had no effect (2 subjects)”. Further, the “hits in the receptor panel” value in data set [18] was “only “hit” a few”. The “effect on METH choice curve” value in [19] was “produced a leftward shift of the METH choice curve”. Besides, the substitution for cocaine result in data set [20] was “does not substitute for cocaine”. Moreover, in data set [10] (3.0 mg/kg i.p.), the “Dunnett's test p vs vehicle, PR break points normalized to baseline” value is recorded as above 0.05 and the “Dunnett's test p vs vehicle, number” value was above 0.05. Besides, in data set [10] (10 mg/kg i.p.), the “Dunnett's test p vs vehicle, PR break points normalized to baseline” value is below 0.001 and the “Dunnett's test p vs vehicle, number” value is below 0.001. In [10] (i.p., 3.0 and 10 mg/kg), the “effect on PR break points normalized to baseline responding” value is on record as “significantly reduced PR break points”; the “effect on number of METH injections (PR)” value was “significantly and dose-dependently reduced METH injections”.
With `COc1ccccc1N1CCN(CCCCNC(=O)c2ccc3ccccc3c2)CC1` [Compound 8], the “outcome of clinical trials for cocaine abuse” value in data set [21] was “failed in clinical trials for cocaine abuse”.
`O=C(NCC[C@H](O)CN1CCN(c2cccc(Cl)c2Cl)CC1)c1cc2ccccc2[nH]1` [(S)-1]: the “effect on 7-OH DPAT-induced yawning” value in data set [16] is on record as “attenuated 7-OH DPAT-induced yawning in rats”. Moreover, in [10] (3.0 mg/kg i.p.), the “Dunnett's test p vs vehicle, PR break points normalized to baseline” value is given as below 0.01 and the “Dunnett's test p vs vehicle, number” value is above 0.05. In addition, in data set [10] (10 mg/kg i.p.), the “Dunnett's test p vs vehicle, PR break points normalized to baseline” value was below 0.001 and the “Dunnett's test p vs vehicle, number” value is below 0.001.
